# Reference: publication PMC5571359, “Screening the Medicines for Malaria Venture Pathogen Box across Multiple Pathogens Reclassifies Starting Points for Open-Source Drug Discovery” (Antimicrobial Agents and Chemotherapy, 2017)
# Like-named read-outs stand apart in the source and are kept apart here.
# Columns and labels:
# HEK293 cells = assay: HEK293 resazurin cell cytotoxicity assay; conditions: Homo sapiens; for IC50: HEK293, read-out: HEK % Inhibition 20uM/IC50 Discovery Biology (IA); for inhibition at 20 µM: HEK293, read-out: HEK % Inhibition 20uM/IC50 Discovery Biology
# HepG2 = conditions: cited from earlier work
# [1] = system: Plasmodium falciparum 3D7 asexual blood stage; assay: microbe, parasite or virus in culture
# P. falciparum ABS = conditions: cited from earlier work; for EC50: ChEMBL Data, P. falciparum, read-out: TCMDC (ref 93) EX50; for IC50: read-out: Pf 3D7 Pbox IC50
# [2] = system: NF54-pfs16-LUC-GFP stage IV gametocytes; assay: Plasmodium falciparum late stage gametocyte (LSG) image-based assay; assay type: cell-based; conditions: Plasmodium falciparum
# [3] = system: T. b. brucei 427 bloodstream trypanosomes; assay: T. b. brucei resazurin viability assay; assay type: cell-based, Trypanosoma brucei brucei; conditions: Trypanosoma brucei
# [4] = ref Pbox supporting information
# [5] = 3D7, read-out: Antiplasmodial IC50 (ABS)
# [6] = read-out: HepG2 PBox CC50 µM, HepG2 cytotoxicity, ref PBox supporting information
# [7] = 3D7, read-out: Antiplasmodial IC50 (ABS), PBox compounds, P. falciparum 3D7
# [8] = NF54, read-out: Antiplasmodial IC50 (GAM / LSG), PBox compounds, stage IV gametocytes, single determination
# [9] = 3D7, read-out: activity against P. falciparum (novel antiplasmodial actives of the tuberculosis set)
# [10] = read-out: T b.brucei Discovery Biology IC50
# [11] = read-out: HepG2 PBox CC50, HepG2, ref PBox supporting information
# [12] = P. falciparum 3D7, ref PBox supporting information
# [13] = HepG2, ref PBox supporting information
smiles,measurement,setting,value
Cc1[nH]c2cc(F)cc(F)c2c(=O)c1-c1ccc(Oc2ccc(OC(F)(F)F)cc2)cc1 [MMV671636],IC50,HEK293 cells,> 20 µM
same,HepG2 PBox CC20 μMc,HepG2; [4],>80 µM
same,IC50,[1]; [5],1.01 µM
c1cncc(NCc2ccc(-c3cc4ccncc4cc3OC3CCNCC3)s2)c1 [MMV023969],inhibition at 20 µM,HEK293 cells,86%
same,CC50,HepG2; [6],8 µM
same,EC50,P. falciparum ABS; TCMDC set,0.98 µM
same,IC50,[1]; [7],0.59 µM
COc1cccc(-n2nnnc2S(=O)(=O)Cc2ccccc2)c1 [MMV676388],IC50,[2]; [8],2.99 µM
same,IC50,[1]; [7],4.93 µM
same,IC50,[1]; [9],4 to 5 µM
CN1CCN(CCCOc2ncc(Nc3ncc(-c4ccc(C(F)(F)F)c(F)c4)nc3C(N)=O)cn2)CC1 [MMV687812],inhibition at 20 µM,HEK293 cells,100%
same,CC50,HepG2; [6],3.9 µM
same,IC50,"[1]; 3D7, read-out: Pf 3D7 Discovery Biology IC50 µM, P. falciparum 3D7 asexual blood stage, Discovery Biology",1.6 µM
Cc1ccc2[nH]c(C3CCCNC3)c(-c3ccncc3)c2c1 (stereo not shown) [MMV024311],CC50,HepG2; [6],12.7 µM
same,EC50,P. falciparum ABS; TCMDC set,1.23 µM
same,IC50,[3]; read-out: T b.brucei Discovery Biology IC50 µM,5.15 µM
same,IC50,[1]; [7],0.75 µM
CC(C)(C)c1cnc(NC(=O)c2ccccc2O)s1 [MMV495543],CC50,HepG2; [6],47.6 µM
same,IC50,[3]; [10],5.45 µM
Cc1cc(NCCc2ccccc2)nc(NC(=N)Nc2ccc(Cl)cc2)n1 [MMV021660],inhibition at 20 µM,HEK293 cells,100%
same,CC50,HepG2; [6],6.5 µM
same,EC50,P. falciparum ABS; TCMDC set,0.23 µM
same,IC50,[1]; [7],0.16 µM
Brc1cncc(-c2cc(NCCCn3ccnc3)nc(-c3ccccc3)n2)c1 [MMV661713],IC50,[1]; [7],1.49 µM
same,IC50,[1]; [9],< 2 µM
COc1cccc(-n2nnnc2S(C)(=O)=O)c1 [MMV272144],IC50,"[2]; NF54, read-out: Pf Stage IV GAMS Discovery Biology IC50 µM, stage IV gametocytes, Discovery Biology",1.92 µM
same,inhibition at 20 µM,HEK293 cells,100%
same,CC50,HepG2; [6],1.7 µM
same,IC50,[3]; [10],4.12 µM
O=C(c1ccc(F)cc1)N(CCNc1ccccc1)c1ccccc1 [MMV676204],HepG2 PBox CC20 μMc,HepG2; [4],18.5 µM
NCC(c1cccs1)S(=O)(=O)c1ccccc1 (stereo not shown) [MMV688557],CC50,HepG2; [11],35.4 µM
O=C(c1[nH]nc2c1CCCC2)N1CCN(Cc2ccc3c(c2)OCO3)CC1 [MMV676389],CC50,HepG2; [6],> 100 µM
CCc1ccc(S(=O)(=O)Nc2cc(CN3CCN(CCC(C)C)CC3)ccc2C)cc1 [MMV688124],CC50,HepG2; [6],27.4 µM
O=C(NCc1cc(Cl)cc(Cl)c1)c1c(C(F)(F)F)nc2ccccn12 [MMV687699],CC50,HepG2; [6],38.3 µM
CCc1c(C)nc(-n2nc(C)cc2NC(=O)c2ccccc2SC)[nH]c1=O [MMV676477],CC50,HepG2; [6],1.3 µM
O=C(Nc1cccnc1)c1c(O)c2cccc3c2n(c1=O)CC3 [MMV676395],CC50,HepG2; [6],> 100 µM
CC(C)(C(=O)Nc1ccc(F)cc1)n1cc(-c2ccccc2F)cn1 [MMV687239],CC50,HepG2; [6],> 100 µM
Cc1cc(Cl)ccc1NC(=O)CCc1ccc(S(=O)(=O)NCC(C)C)cc1 [MMV161996],CC50,HepG2; [6],> 100 µM
O=C(NCCc1c[nH]c2ccccc12)c1cc2ccccc2oc1=O [MMV676539],CC50,HepG2; [6],> 100 µM
Cc1nnc(NCc2cccc(Cl)c2)c2ccccc12 [MMV676555],CC50,HepG2; [6],76 µM
O=C1O[C@@H](CO)CN1c1cc(F)c(C2=CCN(Cc3ccccc3)CC2)c(F)c1 [MMV687729],CC50,HepG2,38.8 µM
Nc1cccnc1Nc1ccc(Cl)cc1 [MMV676524],CC50,HepG2; [6],9 µM
O=C(Nc1nnc(-c2ccc(Cl)s2)o1)c1ccc(Cl)s1 [MMV676501],CC50,HepG2; [6],50.1 µM
CCOC(=O)c1cc(-c2csc(Nc3c(C)cc(C)cc3C)n2)on1 [MMV676461],CC50,HepG2; [6],24.4 µM
Cc1ccc(NC(=O)CC2COc3ccccc3O2)cc1Cl (stereo not shown) [MMV676431],CC50,HepG2; [6],66.7 µM
CC1(C)Cc2c(c(N3CCOCC3)nc3snc(Br)c23)CO1 [MMV687794],IC50,HEK293 cells,> 20 µM
same,IC50,P. falciparum ABS; [12],0.29 µM
COc1cccc(OC)c1C(=O)Nc1ccc(Cl)c(-c2nc3ccccc3s2)c1 [MMV676472],CC50,HepG2; [6],> 100 µM
CCCn1nnc(NC(=O)COc2ccc(C3CCCCC3)cc2)n1 [MMV676597],CC50,HepG2; [6],> 100 µM
CC1(COc2ccc(N3CCC(Oc4ccc(OC(F)(F)F)cc4)CC3)cc2)Cn2cc([N+](=O)[O-])nc2O1 (stereo not shown) [MMV688262],CC50,HepG2; [6],72.5 µM
COc1ccc(-c2onc(C(F)(F)F)c2-c2ccc(Cl)cc2)c(O)c1 [MMV688766],IC50,[2]; [8],1.31 µM
same,IC50,HEK293 cells,> 20 µM
same,IC50,[1]; [7],0.85 µM
COc1ccc2nc(C)cc(OCC(=O)Nc3ccccc3OC)c2c1 [MMV687188],CC50,HepG2; [6],57.4 µM
CC(=O)N(CCN(C(=O)c1ccc(F)cc1)c1ccccc1)c1ccccc1 [MMV676064],HepG2 PBox CC20 μMc,HepG2; [4],39 µM
FC(F)(F)c1nnc2ccc(Cl)nn12 [MMV069458],CC50,HepG2; [6],> 100 µM
CCCCc1ccc(C(=O)Nc2nccc3ccccc23)nc1 [MMV687254],CC50,HepG2; [6],73.8 µM
CC(C)c1ncc(-c2ccncc2)c([C@H]2CC[C@H](CNC(=O)c3cccnc3)CC2)n1 [MMV676442],IC50,HEK293 cells,> 20 µM
same,EC50,P. falciparum ABS,0.78 µM
same,IC50,P. falciparum ABS; [12],0.84 µM
O=C(NCCc1ccccc1)c1cc(-c2cccnc2)cnc1NCC1CC1 [MMV026490],IC50,HEK293 cells,> 20 µM
same,EC50,P. falciparum ABS,0.85 µM
same,IC50,P. falciparum ABS; [12],1.29 µM
same,IC50,[3]; [10],6.02 µM
Nc1ncnc2c1ncn2C[C@@H](O)[C@@H](O)C(=O)O [MMV689255],HepG2 PBox CC20,HepG2; [13],>80 µM
CS(=O)(=O)N1CCC(Cn2nc(Cc3cccc4ccccc34)c3c(N)ncnc32)CC1 [MMV676050],inhibition at 20 µM,HEK293 cells,77%
same,HepG2 PBox CC20,HepG2; [13],53 µM
Cc1cccc(-c2nc(Nc3ccncn3)c3sccc3n2)n1 [MMV688122],IC50,[2]; [8],0.11 µM
same,CC50,HepG2; [6],14.3 µM
same,IC50,[1]; [7],2.11 µM
CO/C=C(/C(=O)OC)c1ccccc1Oc1cc(Oc2ccccc2C#N)ncn1 [MMV021057],IC50,[2]; [8],0.03 µM
same,inhibition at 20 µM,HEK293 cells,71%
same,IC50,"P. falciparum ABS; Pf 3D7, ref Pathogen Box supporting information",0.0536 µM
same,IC50,[1]; [5],0.04 µM
same,IC50,"[1]; 3D7, read-out: Pf 3D7 Discovery Biology IC50 µM",0.035 µM
CNCCC(Oc1ccc(C(F)(F)F)cc1)c1ccccc1 (stereo not shown) [MMV001561],HepG2 PBox CC20,HepG2; [13],9.0 µM
O=C(NCc1ccco1)N1CCN(Cc2ccc(Cl)s2)CC1 [MMV688555],CC50,HepG2; [11],> 100 µM
COC(=O)C1=C(C)NC(C)=C(C(=O)OC(C)C)C1c1cccc2nonc12 (stereo not shown) [MMV001493],HepG2 PBox CC20 μMc,HepG2,66 µM
CC(C)(C)c1ccc(N[C@@H]2CCCC[C@H]2NC(=O)c2ccco2)cc1 [MMV675969],HepG2 PBox CC20 μMc,HepG2; [4],35.9 µM
Cn1c(=O)c2c(S(C)(=O)=O)snc2n(C)c1=O [MMV687251],inhibition at 20 µM,HEK293 cells,100%
same,CC50,HepG2; [6],1.1 µM
Nc1ncc(Br)cc1-c1nc2cc(Cl)cnc2[nH]1 [MMV676358],IC50,HEK293 cells,> 20 µM
same,IC50,P. falciparum ABS; [12],1.5 µM
COc1ccc(-c2cnc3cnc(-c4cccc(OC(C)C)c4)cn23)cc1 [MMV688270],HepG2 PBox CC20 μMc,HepG2; [4],24.3 µM
COc1cccn2c(C(=O)N3CCCCC3)c(C(F)(F)F)nc12 [MMV1110498],HepG2 PBox CC20 μMc,HepG2; [4],>80 µM
CNc1snc(C)c1C(=O)NCCOc1ccc(OC)cc1 [MMV688554],CC50,HepG2; [11],> 100 µM
c1ccc(-c2[nH]c3ccccc3c2C(c2ccccn2)N2CCCC2)cc1 (stereo not shown) [MMV688762],IC50,"[2]; NF54, read-out: Pf Stage IV GAMS Discovery Biology IC50 µM, stage IV gametocytes",3.16 µM
same,IC50,HEK293 cells,> 20 µM
same,HepG2 PBox CC20 μMc,HepG2; [4],1 µM
Cc1cc(OCC(=O)NCc2ccccc2)c2cc(Br)ccc2n1 [MMV687747],CC50,HepG2; [6],31 µM
CC1COC2(CCN(c3nc(=O)c4cc(C(F)(F)F)cc([N+](=O)[O-])c4s3)CC2)O1 (stereo not shown) [MMV676603],CC50,HepG2; [6],> 100 µM
COc1ccc(-c2nc(-c3cccc(NC(=O)Cc4ccc(F)cc4)c3)no2)cc1OC [MMV676571],CC50,HepG2; [6],> 100 µM
CCc1nc2ccccc2n1CC(O)COc1cc(C)ccc1Cl (stereo not shown) [MMV676449],CC50,HepG2; [6],43.2 µM
CC(C)(C)n1nc(Cc2cccc3ccccc23)c2c(N)ncnc21 [MMV676599],HepG2 PBox CC20,HepG2; [13],19 µM
COc1cccc(OCC(=O)c2ccc(Br)cc2)c1 [MMV676379],CC50,HepG2; [6],> 100 µM
CCCCc1ccc(NC(=O)Nc2ccc(O[C@H]3CCCC[C@@H]3N(C)c3ccccc3)c(F)c2)cc1 [MMV676063],HepG2 PBox CC20 μMc,HepG2; [4],5.8 µM
O=C(NC1CCCCC1)N1CCN(Cc2ccc3c(c2)OCO3)CC1 [MMV676444],CC50,HepG2; [6],> 100 µM
